Results reported in patent US20140377340A1, “HLA-DR BINDING PEPTIDES AND THEIR USES” (priority 2007, published 2014).
Each block holds one compound with its values, some of them ahead of it.

What was measured:
[1] = test system: 15 different HLA-DR molecules; assay: HLA-DR binding assays, panel of 15 different HLA-DR molecules (breadth of binding); settings: number of the 15 HLA-DR molecules bound (binders: 1000 nM or better)
purified HLA DRB5*0101 = target: T1, purified HLA DRB5*0101 (Homo sapiens, UniProt P01903+Q30154); assay: HLA-DR radioligand binding inhibition assay, DRB5*0101; settings: IC50 nM purified HLA DRB5 *0101, purified HLA DRB5*0101
T1 construct: purified from EBV transformed homozygous cell lines or single MHC allele transfected 721.221, C1R, or fibroblast lines; made in house
Description: (§1) Instead, wells of an opaque white 96-well Optiplate (Packard) are coated with 3 μg (100 μl@ 30 μg/ml) of HLA-specific antibody (Ab) that “capture” complexes of radiolabeled MHC and unlabeled peptide transferred from the molecular binding assay plate in 100 μl of 0.05% NP40/PBS. After a 3-hour incubation period, the supernatant is decanted and scintillation fluid (Microscint 20) added. Captured complexes are then measured on a microplate scintillation and luminescence counter (TopCount NXTTM; Packard).
(§2) HLA-DR purification. Fifteen distinct HLA-DR molecules were used in quantitative assays to measure the binding of peptides to solubilized HLA-DR molecules. […] Briefly, columns of inactivated Sepharose CL4B and Protein A Sepharose were used as pre-columns. HLA-DR molecules were captured by passage of lysates over LB3.1 monoclonal antibody (anti-HLA-DRA) columns. Antibody columns were washed with 10 mM Tris-HCL, pH8.0 with 1% (v/v) NP-40, followed by PBS containing 0.4% (w/v) n-octylglucoside.
(§3) Briefly, 1-10 nM of radiolabeled peptide was co-incubated for 2 days at either room temperature or 37° C. with 1 μM to 1 nM purified HLA-DR molecules in the presence of a cocktail of protease inhibitors. Assays were performed at various pH conditions, ranging from pH 4 to pH 7. […] After incubation, the percentage of HLA-DR-bound radioactivity is determined by capturing HLA-DR/peptide complexes on Optiplates (Packard Instruments, Meriden, Conn.) coated with the LB3.1 antibody and determining bound counts per minute using the TopCount microscintillation counter (Packard Instruments).

purified HLA DRB1*1101 = target: T2, purified HLA DRB1*1101 (Homo sapiens, UniProt P01903+P01911, A100R/A169T/A87E/I96F/K41T/L162R/M171V/P40S/Q125H/Q178H/Q39Y/Q99D/R42S/S66Y/T262R/V115G/W38E); assay: HLA-DR radioligand binding inhibition assay, DRB1*1101; settings: IC50 nM purified HLA DRB1 *1101, purified HLA DRB1*1101
T2 construct: purified from EBV transformed homozygous cell lines or single MHC allele transfected 721.221, C1R, or fibroblast lines; made in house
Description: as §1, §2, §3

purified HLA DRB1*0701 = target: T3, purified HLA DRB1*0701 (Homo sapiens, UniProt P01903+P01911, A100R/A102G/A103Q/D57E/D86V/E43K/F76Y/K127E/L162R/M171V/P40G/Q125H/Q99D/R33Q/R42Y/R54Q/S133A/S66F/T210M/V115G/Y107V/Y59L/Y89S); assay: HLA-DR radioligand binding inhibition assay, DRB1*0701; settings: IC50 nM purified HLA DRB1 *0701, purified HLA DRB1*0701
T3 construct: purified from EBV transformed homozygous cell lines or single MHC allele transfected 721.221, C1R, or fibroblast lines; made in house
Description: as §1, §2, §3

purified HLA DRB1*0405 = target: T4, purified HLA DRB1*0405 (Homo sapiens, UniProt P01903+P01911, A100R/A169T/D86S/F76Y/I96L/K127E/L162R/M171V/N62H/P40V/Q125Y/R42H/S133A/S149N/S66Y/V115G/V209L/W38E); assay: HLA-DR radioligand binding inhibition assay, DRB1*0405; settings: IC50 nM purified HLA DRB1 *0405, purified HLA DRB1*0405
T4 construct: purified from EBV transformed homozygous cell lines or single MHC allele transfected 721.221, C1R, or fibroblast lines; made in house
Description: as §1, §2, §3

purified HLA DRB1*0401 = target: T5, purified HLA DRB1*0401 (Homo sapiens, UniProt P01903+P01911, A100K/A169T/F76Y/I96L/K127E/L162R/M171V/N62H/P40V/Q125Y/R42H/S133A/S149N/S66Y/V115G/V209L/W38E); assay: HLA-DR radioligand binding inhibition assay, DRB1*0401; settings: IC50 nM purified HLA DRB1 *0401, purified HLA DRB1*0401
T5 construct: purified from EBV transformed homozygous cell lines or single MHC allele transfected 721.221, C1R, or fibroblast lines; made in house
Description: as §1, §2, §3

purified HLA DRB1*1501 = target: T6, purified HLA DRB1*1501 (Homo sapiens, UniProt P01903+P01911); assay: HLA-DR radioligand binding inhibition assay, DRB1*1501
T6 construct: purified from EBV transformed homozygous cell lines or single MHC allele transfected 721.221, C1R, or fibroblast lines; made in house
Description: as §1, §2, §3

purified HLA DRB1*0101 = target: T7, purified HLA DRB1*0101 (Homo sapiens, UniProt P01903+P01911, A100R/D57E/F55L/F60I/F76Y/I96L/L162R/M171V/P40L/Q125E/R42F/V115G/Y59C); assay: HLA-DR radioligand binding inhibition assay, DRB1*0101; settings: IC50 nM purified HLA DRB1 *0101, purified HLA DRB1*0101
T7 construct: purified from EBV transformed homozygous cell lines or single MHC allele transfected 721.221, C1R, or fibroblast lines; made in house
Description: as §1, §2, §3

purified HLA DRB1*1302 = target: T8, purified HLA DRB1*1302 (Homo sapiens, UniProt P01903+P01911, A100E/A169T/K41T/L162R/M171V/P40S/Q125H/Q178H/Q39Y/Q99D/R42S/S66N/T262R/V115G/W38E/Y61H); assay: HLA-DR radioligand binding inhibition assay, DRB1*1302
T8 construct: purified from EBV transformed homozygous cell lines or single MHC allele transfected 721.221, C1R, or fibroblast lines; made in house
Description: as §1, §2, §3

T2 sequence (P01903 26-254, other chains not shown): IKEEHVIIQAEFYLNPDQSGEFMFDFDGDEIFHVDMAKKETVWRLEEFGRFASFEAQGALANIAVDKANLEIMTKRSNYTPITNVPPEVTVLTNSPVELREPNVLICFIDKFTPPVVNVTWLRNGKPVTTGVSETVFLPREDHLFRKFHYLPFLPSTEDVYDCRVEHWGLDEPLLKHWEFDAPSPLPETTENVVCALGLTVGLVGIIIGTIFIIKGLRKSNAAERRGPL

Structure (SMILES): CC[C@H](C)[C@H](NC(=O)[C@H](CCC(N)=O)NC(=O)[C@H](CCCNC(=N)N)NC(=O)[C@H](CC(N)=O)NC(=O)CNC(=O)[C@H](CC(=O)O)NC(=O)[C@@H](NC(=O)[C@H](CCCNC(=N)N)NC(=O)[C@H](CCC(=O)O)NC(=O)CNC(=O)[C@H](CCCCN)NC(=O)[C@H](Cc1ccc(O)cc1)NC(=O)[C@H](Cc1c[nH]c2ccccc12)NC(=O)[C@H](CO)NC(=O)[C@@H](N)Cc1ccc(O)cc1)C(C)C)C(=O)O [Peptide 9019.0108]
- Total XRN [1]: 8

Structure (SMILES): CC[C@H](C)[C@H](NC(=O)[C@H](CC(C)C)NC(=O)[C@H](CC(C)C)NC(=O)[C@H](CO)NC(=O)[C@H](C)NC(=O)[C@H](CC(N)=O)NC(=O)[C@@H]1CCCN1C(=O)[C@H](Cc1ccc(O)cc1)NC(=O)[C@@H](NC(=O)[C@@H](NC(=O)[C@H](CCC(=O)O)NC(=O)[C@H](CCCNC(=N)N)NC(=O)CN)[C@@H](C)CC)[C@@H](C)CC)C(=O)N[C@@H](CCC(N)=O)C(=O)N[C@@H](CC(N)=O)C(=O)O [Peptide 9019.0112]
- Total XRN [1]: 10

Structure (SMILES): CC[C@H](C)[C@H](NC(=O)[C@@H](NC(=O)[C@@H]1CCCN1C(=O)[C@H](C)NC(=O)[C@H](CC(=O)O)NC(=O)[C@@H]1CCCN1C(=O)CNC(=O)[C@H](Cc1ccc(O)cc1)NC(=O)[C@H](CC(C)C)NC(=O)[C@@H](NC(=O)[C@H](CC(N)=O)NC(=O)[C@@H](N)CC(C)C)C(C)C)[C@@H](C)O)C(=O)N[C@@H](CO)C(=O)N1CCC[C@H]1C(=O)N[C@@H](CC(C)C)C(=O)O [Peptide 9019.0120]
- IC50 (purified HLA DRB5*0101): > 20000 nM
- IC50 (purified HLA DRB1*1101): > 20000 nM
- IC50 (purified HLA DRB1*0701): 410 nM
- IC50 (purified HLA DRB1*0405): > 20000 nM

Structure (SMILES): CC(C)[C@H](NC(=O)[C@H](Cc1ccccc1)NC(=O)[C@H](Cc1c[nH]c2ccccc12)NC(=O)[C@H](CO)NC(=O)[C@H](Cc1ccc(O)cc1)NC(=O)[C@@H](N)CCC(N)=O)C(=O)N[C@@H](CC(N)=O)C(=O)NCC(=O)N[C@H](C(=O)N[C@@H](Cc1ccccc1)C(=O)N[C@@H](CCC(N)=O)C(=O)N[C@@H](CCC(N)=O)C(=O)N[C@@H](CO)C(=O)N[C@H](C(=O)N[C@@H](CCC(N)=O)C(=O)O)[C@@H](C)O)[C@@H](C)O [Peptide 9019.0122]
- IC50 (purified HLA DRB1*0401): 21 nM
- IC50 (purified HLA DRB1*1501): > 20000 nM
- IC50 (purified HLA DRB1*1101): 230 nM

Continued, values first:

- IC50 (purified HLA DRB1*1501): 83 nM
- IC50 (purified HLA DRB1*1101): > 20000 nM
- IC50 (purified HLA DRB1*0405): 32 nM
Structure (SMILES): CC[C@H](C)[C@H](NC(=O)[C@@H](NC(=O)[C@@H](NC(=O)[C@@H](NC(=O)[C@@H](NC(=O)[C@@H](NC(=O)[C@@H](N)CCCNC(=N)N)[C@@H](C)O)[C@@H](C)O)C(C)C)[C@@H](C)O)[C@@H](C)O)C(=O)N[C@H](C(=O)N[C@H](C(=O)N[C@@H](Cc1ccc(O)cc1)C(=O)N[C@@H](C)C(=O)N[C@@H](CCC(=O)O)C(=O)N1CCC[C@H]1C(=O)N1CCC[C@H]1C(=O)N[C@@H](CCCCN)C(=O)O)C(C)C)[C@@H](C)O [Peptide 9019.0124]

- IC50 (purified HLA DRB1*1501): 5700 nM
- IC50 (purified HLA DRB5*0101): > 20000 nM
Structure (SMILES): CC[C@H](C)[C@H](NC(=O)[C@@H](NC(=O)[C@@H]1CCCN1C(=O)[C@H](CC(=O)O)NC(=O)[C@@H](N)CO)C(C)C)C(=O)N[C@@H](CC(C)C)C(=O)N[C@@H](CC(N)=O)C(=O)N[C@H](C(=O)N[C@@H](CC(C)C)C(=O)N[C@@H](Cc1ccc(O)cc1)C(=O)NCC(=O)N1CCC[C@H]1C(=O)N[C@@H](CC(=O)O)C(=O)N[C@@H](CC(=O)O)C(=O)N1CCC[C@H]1C(=O)O)C(C)C [Peptide 9019.0127]

- IC50 (purified HLA DRB1*0101): 850 nM
- IC50 (purified HLA DRB1*1501): 77 nM
- IC50 (purified HLA DRB1*1302): 26 nM
Structure (SMILES): CSCC[C@H](NC(=O)[C@H](C)NC(=O)[C@H](CC(C)C)NC(=O)[C@@H]1CCCN1C(=O)[C@H](Cc1ccccc1)NC(=O)[C@@H](NC(=O)[C@H](CCC(=O)O)NC(=O)[C@H](CCC(=O)O)NC(=O)[C@@H](N)CCC(=O)O)C(C)C)C(=O)N[C@@H](CC(N)=O)C(=O)N[C@@H](Cc1ccc(O)cc1)C(=O)N[C@@H](CC(C)C)C(=O)N[C@@H](CC(=O)O)C(=O)N[C@@H](CCCNC(=N)N)C(=O)N[C@@H](Cc1ccccc1)C(=O)O [Peptide 9019.0152]
